Test results from US12552772B2, “2-pyrazole anilines and related analogs for inhibiting YAP/TAZ-TEAD” (KATHOLIEKE UNIVERSITEIT LEUVEN, priority 2021, dated 2026).
pEC50: −log10 of the molar value.

These molecules were tested on YAP/TAZ-TEAD transcription (assay: Reporter gene assay for measuring the inhibition of YAP/TAZ-TEAD transcription (TEAD-responsive element luciferase reporter in Hek293T cells)). Conditions: Homo sapiens, HEK-293T, 24 hours incubation.
Format: cell-based
In short: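 Hek293T cells transiently transfected with a TEAD-responsive element luciferase reporter were plated onto compounds and incubated 24 h at 37 °C/5% CO2. SteadyLite luminescence gave percent inhibition, normalised to vehicle (0%) and positive control inhibitor (100%); EC50 derived.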

pEC50 | SMILES
> 6.00 | CNS(=O)(=O)CCNc1ccc(-c2ccc(C(F)(F)F)cc2)cc1-c1ccn(CCO)n1 [compound 112, 2-((3-(1-(2-hydroxyethyl)-1H-pyrazol-3-yl)-4′-(trifluoromethyl)-[1,1′-biphenyl]-4-yl)amino)-N-methylethane-1-sulfonamide]
> 6.00 | CNS(=O)(=O)CCNc1ccc(-c2ccccc2)cc1-c1ccn(Cc2cccc(C(N)=O)c2)n1 [compound 113, 3-((3-(4-((2-(N-methylsulfamoyl)ethyl)amino)-[1,1′-biphenyl]-3-yl)-1H-pyrazol-1-yl)methyl)benzamide]
4.70 to 6.00 | CNS(=O)(=O)CCNc1ccc(-c2ccccn2)cc1-c1ccn(Cc2cccnc2)n1 [compound 114, N-methyl-2-((4-(pyridin-2-yl)-2-(1-(pyridin-3-ylmethyl)-1H-pyrazol-3-yl)phenyl)amino)ethane-1-sulfonamide]
> 6.00 | CNS(=O)(=O)CCNc1ccc(Cc2ccccc2)cc1-c1ccn(Cc2cccnc2)n1 [compound 115, 2-((4-benzyl-2-(1-(pyridin-3-ylmethyl)-1H-pyrazol-3-yl)phenyl)amino)-N-methylethane-1-sulfonamide]
> 6.00 | CNS(=O)(=O)CCNc1ccc(Nc2ccccc2)cc1-c1ccn(Cc2cccnc2)n1 [compound 116, N-methyl-2-((4-(phenylamino)-2-(1-(pyridin-3-ylmethyl)-1H-pyrazol-3-yl)phenyl)amino)ethane-1-sulfonamide]
> 6.00 | CNS(=O)(=O)CCNc1ccc(-c2cccc(C(F)(F)F)c2)cc1-c1ccn(C)n1 [compound 120]
> 6.00 | CNS(=O)(=O)CCNc1ccc(-c2cccc(Cl)c2)cc1-c1ccn(C)n1 [compound 122, 2-((3′-chloro-3-(1-methyl-1H-pyrazol-3-yl)-[1,1′-biphenyl]-4-yl)amino)-N-methylethane-1-sulfonamide]
> 6.00 | CNS(=O)(=O)CCNc1ccc(-c2cc(F)ccc2F)cc1-c1ccn(C)n1 [compound 123, 2-((2′,5′-difluoro-3-(1-methyl-1H-pyrazol-3-yl)-[1,1′-biphenyl]-4-yl)amino)-N-methylethane-1-sulfonamide]
> 6.00 | CNS(=O)(=O)CCNc1ccc(-c2cccc(F)c2F)cc1-c1ccn(C)n1 [compound 125, 2-((2′,3′-difluoro-3-(1-methyl-1H-pyrazol-3-yl)-[1,1′-biphenyl]-4-yl)amino)-N-methylethane-1-sulfonamide]
> 6.00 | CNS(=O)(=O)CCNc1ccc(-c2cc(F)cc(F)c2)cc1-c1ccn(C)n1 [compound 126, 2-((3′,5′-difluoro-3-(1-methyl-1H-pyrazol-3-yl)-[1,1′-biphenyl]-4-yl)amino)-N-methylethane-1-sulfonamide]
> 6.00 | CNS(=O)(=O)CCNc1ccc(-c2ccc(C(F)(F)F)c(F)c2)cc1-c1ccn(C)n1 [compound 127, 2-((3′-fluoro-3-(1-methyl-1H-pyrazol-3-yl)-4′-(trifluoromethyl)-[1,1′-biphenyl]-4-yl)amino)-N-methylethane-1-sulfonamide]
> 6.00 | CNS(=O)(=O)CCNc1ccc(-c2cc(F)cc(C(F)(F)F)c2)cc1-c1ccn(C)n1 [compound 128, 2-((3′-fluoro-3-(1-methyl-1H-pyrazol-3-yl)-5′-(trifluoromethyl)-[1,1′-biphenyl]-4-yl)amino)-N-methylethane-1-sulfonamide]
4.70 to 6.00 | CNS(=O)(=O)CCNc1ccc(-c2cccc(OC(F)(F)F)c2)cc1-c1ccn(C)n1 [compound 129, N-methyl-2-((3-(1-methyl-1H-pyrazol-3-yl)-3′-(trifluoromethoxy)-[1,1′-biphenyl]-4-yl)amino)ethane-1-sulfonamide]
> 6.00 | CNS(=O)(=O)CCNc1cnc(-c2ccc(C(F)(F)F)cc2)cc1-c1ccn(C(F)F)n1 [compound 130, 2-((4-(1-(difluoromethyl)-1H-pyrazol-3-yl)-6-(4-(trifluoromethyl)phenyl)pyridin-3-yl)amino)-N-methylethane-1-sulfonamide]
